Experimental data published in article PMC12028158, “Synthesis and In Vitro Evaluation of the Anticancer Effect of Novel Phosphonium Vindoline Derivatives” (International Journal of Molecular Sciences, 2025).
Like-named read-outs stand apart in the source and are kept apart here.

How the values were obtained:
Type in all cases: cell-based
K-562 = assay: NCI60 one-dose screen; settings: Homo sapiens
RPMI-8226 = assay: NCI60 one-dose screen; settings: Homo sapiens
OVCAR-5 = assay: NCI60 one-dose screen; settings: Homo sapiens
COLO 205 = assay: NCI60 one-dose screen; settings: Homo sapiens
UACC-257 [1] = assay: NCI60 five-dose screen; settings: Homo sapiens
786-0 = assay: NCI60 five-dose screen; settings: Homo sapiens
HOP-92 = assay: NCI60 one-dose screen; settings: Homo sapiens
PC-3 [2] = assay: NCI60 five-dose screen; settings: Homo sapiens
CAKI-1 = assay: NCI60 five-dose screen; settings: Homo sapiens
DU-145 = assay: NCI60 five-dose screen; settings: Homo sapiens
PC-3 [3] = assay: NCI60 one-dose screen; settings: Homo sapiens
OVCAR-4 = assay: NCI60 five-dose screen; settings: Homo sapiens
NCI-H23 = assay: NCI60 five-dose screen; settings: Homo sapiens
MOLT-4 = assay: NCI60 one-dose screen; settings: Homo sapiens
[4] = tested on: 60 human tumor cell lines (NCI60); assay: NCI60 one-dose screen, overall mean; settings: for activity at 10 µM: Homo sapiens, read-out: Mean growth percent; for average reduction / average cell death: 10 µM, average over cell lines
EKVX = assay: NCI60 one-dose screen; settings: Homo sapiens, read-out: Growth percent
MCF7 = assay: NCI60 five-dose screen; settings: Homo sapiens
SW-620 [5] = assay: NCI60 one-dose screen; settings: Homo sapiens
LOX IMVI = assay: NCI60 five-dose screen; settings: Homo sapiens
SR = assay: NCI60 five-dose screen; settings: Homo sapiens
SW-620 [6] = assay: NCI60 five-dose screen; settings: Homo sapiens
SN12C = assay: NCI60 five-dose screen; settings: Homo sapiens
NCI-H460 = assay: NCI60 five-dose screen; settings: Homo sapiens
HOP-62 = assay: NCI60 five-dose screen; settings: Homo sapiens
UACC-257 [7] = assay: NCI60 one-dose screen; settings: Homo sapiens
[8] = tested on: Non-small Cell Lung Cancer panel; assay: NCI60 five-dose screen, panel mean; settings: Homo sapiens, read-out: Mean GI50
KM12 [9] = assay: NCI60 five-dose screen; settings: Homo sapiens
MDA-MB-435 = assay: NCI60 five-dose screen; settings: Homo sapiens
KM12 [10] = assay: NCI60 one-dose screen; settings: Homo sapiens
SK-MEL-5 = assay: NCI60 five-dose screen; settings: Homo sapiens
SF-539 = assay: NCI60 one-dose screen; settings: Homo sapiens
T-47D = assay: NCI60 one-dose screen; settings: Homo sapiens, T47D, read-out: Growth percent
Melanoma panel = assay: NCI60 five-dose screen, panel mean; settings: Homo sapiens, read-out: Mean GI50

Structure (SMILES): CCC12C=CCN3CCC4(c5ccc(OC)cc5N(C)C4C(O)(C(=O)OC)C1OC(=O)CCC[P+](c1ccc(C)cc1)(c1ccc(C)cc1)c1ccc(C)cc1)C32 (centres unmarked) [9a]
- activity at 10 µM (K-562; K562, read-out: Growth percent): -13.1%
- activity at 10 µM (RPMI-8226; RPMI-8226, read-out: Growth percent): -56.3%
- activity at 10 µM (OVCAR-5; OVCAR-5, read-out: Growth percent): -95.9%
- activity at 10 µM (COLO 205; COLO 205, read-out: Growth percent): -50.2%
- GI50 (UACC-257 [1]; UACC-257): 272 nM
- GI50 (786-0; 786-0): 1060 nM
- activity at 10 µM (HOP-92; HOP-92, read-out: Growth percent): -83.2%
- GI50 (PC-3 [2]; PC-3): 310 nM
- GI50 (CAKI-1; CAKI-1): 1.87 µM
- GI50 (DU-145; DU-145): 457 nM
- activity at 10 µM (PC-3 [3]; PC-3, read-out: Growth percent): -83.3%
- GI50 (OVCAR-4; OVCAR-4): 370 nM
- GI50 (NCI-H23; NCI-H23): 303 nM
- activity at 10 µM (MOLT-4; MOLT-4, read-out: Growth percent): -45.1%
- activity at 10 µM ([4]; 60 cell): -78.6%
- average reduction / average cell death ([4]; one-dose): more than 70%
- activity at 10 µM (EKVX): -94.7%
- GI50 (MCF7; MCF7): 281 nM
- activity at 10 µM (SW-620 [5]; SW-620, read-out: Growth percent): -85.2%
- GI50 (LOX IMVI): 333 nM
- GI50 (SR): 281 nM
- GI50 (SW-620 [6]; SW-620): 434 nM
- GI50 (SN12C): 291 nM
- GI50 (NCI-H460; NCI-H460): 327 nM
- GI50 (HOP-62; HOP-62): 470 nM
- activity at 10 µM (UACC-257 [7]; UACC-257, read-out: Growth percent): -92.7%
- GI50 [8]: 410 nM
- GI50 (KM12 [9]; KM12): 376 nM
- GI50 (MDA-MB-435; MDA-MB-435): 331 nM
- activity at 10 µM (KM12 [10]; KM12, read-out: Growth percent): -76.1%
- GI50 (SK-MEL-5; SK-MEL-5): 532 nM
- activity at 10 µM (SF-539; SF-539, read-out: Growth percent): -96.6%
- activity at 10 µM (T-47D): -78.4%
- GI50 (Melanoma panel): 350 nM

Structure (SMILES): CC[C@]12C=CCN3CC[C@@]4(c5ccc(OC)cc5N(C)[C@H]4[C@@](O)(C(=O)OC)[C@@H]1OC(=O)CCC[P+](c1ccc(OC)cc1)(c1ccc(OC)cc1)c1ccc(OC)cc1)[C@@H]32 [9b]
- activity at 10 µM (K-562; K562, K-562, 10 μM, one-dose, read-out: Growth percent): -1.75%
- activity at 10 µM (RPMI-8226; RPMI-8226, 10 μM, one-dose, read-out: Growth percent): -45.5%
- activity at 10 µM (OVCAR-5; OVCAR-5, 10 μM, one-dose, read-out: Growth percent): -96.5%
- activity at 10 µM (COLO 205; COLO 205, 10 μM, one-dose, read-out: Growth percent): -64.4%
- GI50 (UACC-257 [1]; UACC-257, UACC-257, Melanoma, five-dose, read-out: GI50): 646 nM
- GI50 (786-0; 786-0, Renal Cancer, five-dose, read-out: GI50): 1930 nM
- activity at 10 µM (HOP-92; HOP-92, 10 μM, one-dose, read-out: Growth percent): -82.9%
- GI50 (PC-3 [2]; PC-3, Prostate Cancer, five-dose, read-out: GI50): 470 nM
- GI50 (CAKI-1; CAKI-1, Renal Cancer, five-dose, read-out: GI50): 13.7 µM
- GI50 (DU-145; DU-145, Prostate Cancer, five-dose, read-out: GI50): 955 nM
- activity at 10 µM (PC-3 [3]; PC-3, 10 μM, one-dose, read-out: Growth percent): -78.8%
- GI50 (OVCAR-4; OVCAR-4, Ovarian Cancer, five-dose, read-out: GI50): 760 nM
- GI50 (NCI-H23; NCI-H23, Non-small Cell Lung Cancer, five-dose, read-out: GI50): 671 nM
- activity at 10 µM (MOLT-4; MOLT-4, 10 μM, one-dose, read-out: Growth percent): -36.8%
- activity at 10 µM ([4]; mean over 60 cell lines, 10 μM, one-dose): -76.2%
- average reduction / average cell death ([4]; one-dose): more than 70%
- activity at 10 µM (EKVX; 10 μM, one-dose): -85%
- GI50 (MCF7; MCF7, MCF7, Breast Cancer, five-dose, read-out: GI50): 383 nM
- activity at 10 µM (SW-620 [5]; SW-620, 10 μM, one-dose, read-out: Growth percent): -82.4%
- GI50 (LOX IMVI; Melanoma, five-dose, read-out: GI50): 614 nM
- GI50 (SR; Leukemia, five-dose, read-out: GI50): 389 nM
- GI50 (SW-620 [6]; SW-620, Colon Cancer, five-dose, read-out: GI50): 844 nM
- GI50 (SN12C; Renal Cancer, five-dose, read-out: GI50): 672 nM
- GI50 (NCI-H460; NCI-H460, Non-small Cell Lung Cancer, five-dose, read-out: GI50): 666 nM
- GI50 (HOP-62; HOP-62, Non-small Cell Lung Cancer, five-dose, read-out: GI50): 1660 nM
- activity at 10 µM (UACC-257 [7]; UACC-257, 10 μM, one-dose, read-out: Growth percent): -93.5%
- GI50 ([8]; mean over Non-small Cell Lung Cancer panel): 1090 nM
- GI50 (KM12 [9]; KM12, KM12, Colon Cancer, five-dose, read-out: GI50): 628 nM
- GI50 (MDA-MB-435; MDA-MB-435, Melanoma, five-dose, read-out: GI50): 480 nM
- activity at 10 µM (KM12 [10]; KM12, 10 μM, one-dose, read-out: Growth percent): -65.3%
- GI50 (SK-MEL-5; SK-MEL-5, Melanoma, five-dose, read-out: GI50): 1550 nM
- activity at 10 µM (SF-539; SF-539, 10 μM, one-dose, read-out: Growth percent): -98.9%
- activity at 10 µM (T-47D; T-47D, 10 μM, one-dose): -61.4%
- GI50 (Melanoma panel; mean over Melanoma panel): 760 nM
